Structures can show the parent of a compound that is named as a salt.
Tests used:
Assay type in all cases: biochemical
[1] = molecular target: T1, Human urokinase type plasminogen activator (h u-PA) (Homo sapiens, UniProt P00749); test: Inhibition of human urokinase type plasminogen activator (reference enzyme); details: H-Glu-Gly-Arg-pNA substrate
T1 construct: purchased MEDAC GmbH Urokinase HS medac
Description: (§1) The inhibitory effect against the individual purified enzymes was determined in analogy to a previously disclosed method (Stürzebecher et al., J. Med. Chem., 40, 3091-3099 (1997)).
(§2) The release of p-nitroaniline (p-NA, the chromogenic product of the proteolytic activity), was determined by change in absorbance at 405 nm. The equilibrium rates were used to calculate the inhibitor/enzyme dissociation constant (Ki values) by parameter fitting in accordance with the rate equation for competitive inhibition using GraFit (version 4 from Erithacus). The results are reported as Ki values (nanomolar) in table 7 and are the average of at least three determinations.
(§3) Dissociation constants were calculated as described herein.

[2] = molecular target: T2, Subcomponent "r" of Human Complement Component 1 (h C1r) (Homo sapiens, UniProt P00736); test: Inhibition of human C1r (reference enzyme); details: S-2314 substrate; read-out: Ki h Clr
T2 construct: purchased Calbiochem
T2 sequence (P00736 464-705 limits assumed): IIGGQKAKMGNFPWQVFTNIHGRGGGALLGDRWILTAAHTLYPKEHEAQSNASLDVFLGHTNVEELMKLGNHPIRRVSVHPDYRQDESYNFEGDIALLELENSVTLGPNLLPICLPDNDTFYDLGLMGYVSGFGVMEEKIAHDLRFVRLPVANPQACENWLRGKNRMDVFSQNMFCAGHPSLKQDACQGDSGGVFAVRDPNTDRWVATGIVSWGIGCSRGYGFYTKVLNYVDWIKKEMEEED
T2 sequence (P00736 18-463 partner limits assumed): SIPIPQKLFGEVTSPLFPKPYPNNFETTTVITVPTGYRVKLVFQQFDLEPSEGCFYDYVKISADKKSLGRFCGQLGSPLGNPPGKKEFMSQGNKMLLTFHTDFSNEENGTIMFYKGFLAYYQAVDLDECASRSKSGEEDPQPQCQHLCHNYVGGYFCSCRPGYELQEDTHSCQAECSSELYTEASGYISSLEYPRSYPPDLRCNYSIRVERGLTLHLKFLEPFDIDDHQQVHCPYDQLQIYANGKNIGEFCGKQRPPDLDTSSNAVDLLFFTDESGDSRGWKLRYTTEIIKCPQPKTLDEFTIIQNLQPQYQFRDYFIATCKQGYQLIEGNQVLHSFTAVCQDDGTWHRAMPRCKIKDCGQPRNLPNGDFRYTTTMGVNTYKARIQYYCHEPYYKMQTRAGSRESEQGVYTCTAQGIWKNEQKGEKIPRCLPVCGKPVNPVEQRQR
Description: as §1, §2, §3

[3] = molecular target: T3, Subcomponent "s" of Human Complement Component 1 (h C1s) (Homo sapiens, UniProt P09871); test: Inhibition of human C1s (reference enzyme); details: S-2314 substrate; read-out: Ki h Cls
T3 construct: purchased Calbiochem
T3 sequence (P09871 438-688 limits assumed): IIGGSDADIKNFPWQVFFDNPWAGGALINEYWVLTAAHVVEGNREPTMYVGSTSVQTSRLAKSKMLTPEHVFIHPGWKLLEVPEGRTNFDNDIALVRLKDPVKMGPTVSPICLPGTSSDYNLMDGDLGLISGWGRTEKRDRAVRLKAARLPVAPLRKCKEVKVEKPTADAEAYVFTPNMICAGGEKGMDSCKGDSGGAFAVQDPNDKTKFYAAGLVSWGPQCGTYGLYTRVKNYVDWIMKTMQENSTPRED
T3 sequence (P09871 16-437 partner limits assumed): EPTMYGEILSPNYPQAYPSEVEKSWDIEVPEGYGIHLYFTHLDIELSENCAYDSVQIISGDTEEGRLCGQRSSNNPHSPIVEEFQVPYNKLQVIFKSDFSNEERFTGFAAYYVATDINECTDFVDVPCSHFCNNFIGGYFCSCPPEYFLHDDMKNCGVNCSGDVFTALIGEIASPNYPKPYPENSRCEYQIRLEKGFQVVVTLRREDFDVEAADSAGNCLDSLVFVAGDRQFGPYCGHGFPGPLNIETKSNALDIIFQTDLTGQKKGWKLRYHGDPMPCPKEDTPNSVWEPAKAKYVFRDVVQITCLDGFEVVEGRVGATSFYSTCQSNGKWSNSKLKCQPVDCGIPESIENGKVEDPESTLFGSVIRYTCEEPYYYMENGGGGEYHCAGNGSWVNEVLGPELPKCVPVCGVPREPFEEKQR
Description: as §1, §2, §3

[4] = molecular target: T4, human factor IIa (human alpha-thrombin) (Homo sapiens, UniProt P00734); test: Inhibition constants for human factor IIa, chromogenic substrate assay; details: 25° C., Pefachrome tPA substrate, average of at least three determinations; read-out: Ki h FIIa
T4 construct: human alpha-thrombin from Enzyme Research Laboratories; purchased Enzyme Research Laboratories
Description: as §1
(§4) 200 μL of TBS (0.05 M trishydroxymethylaminomethane; 0.154 M NaCl, 2% ethanol, pH 8.0)
as §2

[5] = molecular target: T5, Human plasma kallikrein (h PK) (Homo sapiens, UniProt P03952); test: Inhibition of human plasma kallikrein (reference enzyme); details: S2302 substrate
T5 construct: purchased Enzyme Research Laboratories
T5 sequence (P03952 391-638 limits assumed): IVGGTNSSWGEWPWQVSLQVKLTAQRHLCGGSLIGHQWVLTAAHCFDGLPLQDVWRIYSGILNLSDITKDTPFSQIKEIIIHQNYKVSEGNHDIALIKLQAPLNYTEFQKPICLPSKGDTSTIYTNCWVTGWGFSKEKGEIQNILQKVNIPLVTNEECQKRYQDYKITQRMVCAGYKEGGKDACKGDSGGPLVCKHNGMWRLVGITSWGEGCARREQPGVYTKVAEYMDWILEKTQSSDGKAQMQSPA
T5 sequence (P03952 20-390 partner limits assumed): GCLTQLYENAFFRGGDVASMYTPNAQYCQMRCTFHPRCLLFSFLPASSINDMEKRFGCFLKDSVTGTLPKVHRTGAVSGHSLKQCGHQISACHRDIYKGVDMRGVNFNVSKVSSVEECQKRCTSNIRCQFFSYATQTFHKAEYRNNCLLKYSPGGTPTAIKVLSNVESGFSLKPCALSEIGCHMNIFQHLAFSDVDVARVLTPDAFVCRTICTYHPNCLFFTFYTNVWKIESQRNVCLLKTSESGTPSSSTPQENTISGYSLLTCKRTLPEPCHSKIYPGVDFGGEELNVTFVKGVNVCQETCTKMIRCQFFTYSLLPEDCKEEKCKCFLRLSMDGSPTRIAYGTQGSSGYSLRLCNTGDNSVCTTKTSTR
Description: as §1, §2, §3

[6] = molecular target: T6, Human plasmin (h plasmin) (Homo sapiens, UniProt P00747); test: Inhibition of human plasmin (reference enzyme); details: Chromozym PL substrate
T6 construct: purchased Calbiochem
T6 sequence (P00747 581-810 limits assumed): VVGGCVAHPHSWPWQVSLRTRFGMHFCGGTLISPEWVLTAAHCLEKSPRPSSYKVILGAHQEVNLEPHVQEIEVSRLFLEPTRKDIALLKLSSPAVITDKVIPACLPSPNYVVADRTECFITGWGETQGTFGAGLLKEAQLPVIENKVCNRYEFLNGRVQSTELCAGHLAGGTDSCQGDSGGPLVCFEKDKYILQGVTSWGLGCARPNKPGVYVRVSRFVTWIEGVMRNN
T6 sequence (P00747 97-580 partner limits assumed): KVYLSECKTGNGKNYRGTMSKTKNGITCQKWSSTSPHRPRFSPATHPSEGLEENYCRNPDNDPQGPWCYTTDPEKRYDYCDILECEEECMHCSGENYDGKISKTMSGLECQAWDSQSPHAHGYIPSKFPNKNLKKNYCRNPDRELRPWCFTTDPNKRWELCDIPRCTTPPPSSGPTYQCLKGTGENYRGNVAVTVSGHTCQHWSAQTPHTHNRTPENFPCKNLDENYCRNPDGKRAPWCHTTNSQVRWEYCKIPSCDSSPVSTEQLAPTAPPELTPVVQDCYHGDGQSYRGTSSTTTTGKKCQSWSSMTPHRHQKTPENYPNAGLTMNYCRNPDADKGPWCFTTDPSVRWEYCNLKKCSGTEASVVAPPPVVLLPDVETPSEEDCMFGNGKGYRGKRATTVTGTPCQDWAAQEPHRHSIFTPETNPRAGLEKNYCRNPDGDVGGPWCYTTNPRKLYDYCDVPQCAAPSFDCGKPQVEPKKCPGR
Description: as §1, §2, §3

[7] = molecular target: T7, human Factor Xa (Homo sapiens, UniProt P00742); test: Inhibition constants for human factor Xa, chromogenic substrate assay; details: 25° C., Pefachrome FXa substrate, average of at least three determinations; read-out: Ki h FXa
T7 construct: human Factor Xa from Enzyme Research Laboratories; purchased Enzyme Research Laboratories
T7 sequence (P00742 235-488 limits assumed): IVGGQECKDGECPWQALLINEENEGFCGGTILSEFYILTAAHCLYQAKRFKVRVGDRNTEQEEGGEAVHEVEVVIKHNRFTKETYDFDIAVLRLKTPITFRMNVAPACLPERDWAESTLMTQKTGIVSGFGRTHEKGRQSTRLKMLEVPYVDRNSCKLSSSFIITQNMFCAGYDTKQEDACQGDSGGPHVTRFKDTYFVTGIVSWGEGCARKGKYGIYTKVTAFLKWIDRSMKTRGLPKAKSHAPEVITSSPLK
T7 sequence (P00742 41-179 partner limits assumed): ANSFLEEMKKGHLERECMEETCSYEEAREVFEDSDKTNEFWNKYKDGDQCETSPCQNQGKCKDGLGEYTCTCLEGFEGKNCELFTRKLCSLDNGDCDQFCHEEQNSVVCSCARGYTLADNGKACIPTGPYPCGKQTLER
Description: as §1, §4, §2

[8] = molecular target: T8, Human Activated Protein C (h aPC) (Homo sapiens, UniProt P04070); test: Inhibition of human activated protein C (reference enzyme); details: Pefachrome PCa substrate
T8 construct: purchased Enzyme Research Laboratories
T8 sequence (P04070 212-450 limits assumed): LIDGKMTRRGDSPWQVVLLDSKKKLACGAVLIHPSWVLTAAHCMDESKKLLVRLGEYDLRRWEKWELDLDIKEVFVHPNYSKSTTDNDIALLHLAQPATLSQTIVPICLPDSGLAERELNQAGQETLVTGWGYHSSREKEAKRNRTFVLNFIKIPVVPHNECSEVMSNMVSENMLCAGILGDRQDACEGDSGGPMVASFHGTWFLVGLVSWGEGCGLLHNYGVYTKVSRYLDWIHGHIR
T8 sequence (P04070 43-197 partner limits assumed): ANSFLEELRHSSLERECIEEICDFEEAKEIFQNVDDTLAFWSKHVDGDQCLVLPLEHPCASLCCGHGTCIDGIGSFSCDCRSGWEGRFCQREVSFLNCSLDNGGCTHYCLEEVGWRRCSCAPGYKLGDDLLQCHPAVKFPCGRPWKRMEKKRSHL
Description: as §1, §2, §3

[9] = molecular target: T9, Human tissue-type plasminogen activator (h t-PA) (Homo sapiens, UniProt P00750); test: Inhibition of human tissue-type plasminogen activator (reference enzyme); details: Pefachrome tPA substrate; read-out: Ki h t-PA
T9 construct: purchased Boehringer Ingelheim Actilyse
T9 sequence (P00750 36-562): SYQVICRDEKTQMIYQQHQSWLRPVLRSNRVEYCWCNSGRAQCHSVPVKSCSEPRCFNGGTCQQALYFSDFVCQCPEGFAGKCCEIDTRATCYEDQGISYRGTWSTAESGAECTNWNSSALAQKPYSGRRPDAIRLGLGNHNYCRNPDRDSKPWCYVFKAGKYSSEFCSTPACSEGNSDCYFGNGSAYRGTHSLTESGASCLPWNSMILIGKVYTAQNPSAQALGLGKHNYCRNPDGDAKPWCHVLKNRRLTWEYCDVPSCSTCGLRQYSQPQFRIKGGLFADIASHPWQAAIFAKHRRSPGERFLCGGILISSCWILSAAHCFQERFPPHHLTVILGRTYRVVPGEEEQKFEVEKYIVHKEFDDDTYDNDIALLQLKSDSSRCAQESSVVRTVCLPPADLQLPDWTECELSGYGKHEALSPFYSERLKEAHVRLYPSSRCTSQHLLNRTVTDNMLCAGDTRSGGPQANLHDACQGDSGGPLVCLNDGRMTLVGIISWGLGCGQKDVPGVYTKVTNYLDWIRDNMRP
Description: The equilibrium rates were used to calculate the inhibitor/enzyme dissociation constant (Ki values) by parameter fitting in accordance with the rate equation for competitive inhibition using GraFit (version 4 from Erithacus).
as §3

[10] = molecular target: T10, Human urinary kallikrein (h uKK) (Homo sapiens, UniProt P06870); test: Inhibition of human urinary kallikrein (reference enzyme); details: S-2266 substrate
T10 construct: purchased Lee Biosolutions
T10 sequence (P06870 25-262): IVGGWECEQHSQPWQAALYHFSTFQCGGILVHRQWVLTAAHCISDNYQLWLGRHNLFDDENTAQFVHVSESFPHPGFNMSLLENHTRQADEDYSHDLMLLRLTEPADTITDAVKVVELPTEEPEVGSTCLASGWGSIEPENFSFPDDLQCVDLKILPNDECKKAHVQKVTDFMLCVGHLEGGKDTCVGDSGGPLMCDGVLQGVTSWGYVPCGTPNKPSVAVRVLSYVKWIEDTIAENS
Description: as §1, §2, §3

| Ki [1] | Ki [2] | Ki [3] | Ki [4] | Ki [5] | Ki [6] | Ki [7] | Ki [8] | Ki [9] | Ki [10] | SMILES |
| --- | --- | --- | --- | --- | --- | --- | --- | --- | --- | --- |
| > 20 µM | > 30 µM | > 100 µM | 0.00072 µM | 1.86 µM | > 20 µM | 0.22 nM | > 100 µM | > 20 µM | > 10 µM | NCc1ccc(Cl)cc1CNC(=O)[C@@H]1CCN1C(=O)[C@@H](CC(=O)N1CCCCC1)NS(=O)(=O)Cc1ccccc1 [Compound 2.45] |
| > 50 µM | > 50 µM | > 50 µM | 0.0003 µM | 4.53 µM | > 50 µM | 8.3 nM | > 20 µM | > 50 µM | > 20 µM | NCc1ccc(Cl)cc1CNC(=O)[C@@H]1CCCCN1C(=O)[C@@H](CC(=O)N1CCOCC1)NS(=O)(=O)Cc1ccccc1 [Compound 2.14] |
| > 100 µM | > 10 µM | > 100 µM | 0.008 µM | > 10 µM | > 100 µM | 134 nM | > 10 µM | > 100 µM | > 100 µM | NCc1ccc(Cl)cc1CNC(=O)[C@@H]1CCCN1C(=O)[C@H](N)CCC(=O)N1CCOCC1 [Compound 2.49, H-D-Glu(morpholino)-L-Pro-Amb(2-AMe-5-Cl)×2 TFA] |
| > 15 µM | > 50 µM | > 100 µM | 0.0024 µM | 1.02 µM | > 4.6 µM | 1.5 nM | > 30 µM | > 5 µM | > 5 µM | NCc1ccc(Cl)cc1CNC(=O)[C@@H]1CCCN1C(=O)[C@@H](CC(=O)N1CCNCC1)NS(=O)(=O)Cc1ccccc1 [Compound 2.19] |
| > 20 µM | > 200 µM | > 80 µM | 0.00049 µM | 0.413 µM | 6 µM | 0.54 nM | > 40 µM | 19 µM | – | NCc1ccc(Cl)cc1CNC(=O)[C@@H]1CCCN1C(=O)[C@@H](CC(=O)N1CCSCC1)NS(=O)(=O)Cc1ccccc1 [Compound 2.37] |
| > 60 µM | > 200 µM | > 80 µM | 0.0078 µM | 0.614 µM | – | 5.5 nM | > 50 µM | > 20 µM | – | NCc1ccc(Cl)cc1CNC(=O)[C@@H]1CCCN1C(=O)[C@@H](CC(=O)N1CC[S+]([O-])CC1)NS(=O)(=O)Cc1ccccc1 [Compound 2.38] |
| > 40 µM | > 30 µM | > 100 µM | 0.00034 µM | 0.565 µM | > 12 µM | 0.38 nM | > 100 µM | 18 µM | – | NCc1ccc(Cl)cc1CNC(=O)[C@@H]1CCCN1C(=O)[C@@H](CC(=O)N1CCOCC1)NS(=O)(=O)Cc1ccccc1 [Compound 2.36] |
| – | – | – | 0.0186 µM | – | – | 15.4 nM | > 0.5 µM | – | – | NCc1ccc(Cl)cc1CNC(=O)[C@@H]1CCCN1C(=O)[C@@H](CC(=O)N1CCS(=O)(=O)CC1)NS(=O)(=O)Cc1ccccc1 [Compound 2.39] |

Further lines, the molecule ahead of its results:

| SMILES | Ki [1] | Ki [2] | Ki [3] | Ki [4] | Ki [5] | Ki [6] | Ki [7] | Ki [8] | Ki [9] | Ki [10] |
| --- | --- | --- | --- | --- | --- | --- | --- | --- | --- | --- |
| NCc1ccc(Cl)cc1CNC(=O)[C@@H]1C[C@@H](N)CN1C(=O)[C@@H](CC(=O)N1CCNCC1)NS(=O)(=O)Cc1ccccc1 [Compound 2.5] | > 100 µM | > 100 µM | > 20 µM | 0.018 µM | 0.639 µM | > 10 µM | 2.8 nM | > 20 µM | 9.27 µM | > 100 µM |
| NCc1ccc(Cl)cc1CNC(=O)[C@@H]1CNCCN1C(=O)[C@@H](CC(=O)N1CCCCC1)NS(=O)(=O)Cc1ccccc1 [Compound 2.13] | > 100 µM | > 30 µM | > 60 µM | 0.0051 µM | 8.56 µM | > 100 µM | 1.4 nM | > 30 µM | > 40 µM | > 20 µM |
| NCc1ccc(Cl)cc1CNC(=O)[C@@H]1C[C@H](N)CN1C(=O)[C@@H](CC(=O)N1CCCCC1)NS(=O)(=O)Cc1ccccc1 [Compound 2.6] | > 30 µM | > 20 µM | > 20 µM | 0.00018 µM | 0.335 µM | 8.75 µM | 0.049 nM | > 100 µM | 5.05 µM | > 50 µM |
| CN(C(=O)C[C@@H](NS(=O)(=O)Cc1ccccc1)C(=O)N1CCC[C@H]1C(=O)NCc1cc(Cl)ccc1CN)C1CCOCC1 [Compound 2.4] | > 40 µM | > 10 µM | > 25 µM | 0.00056 µM | 0.262 µM | > 20 µM | 1.3 nM | > 10 µM | > 100 µM | > 50 µM |
| CC(=O)N1CCN(C(=O)C[C@@H](NS(=O)(=O)Cc2ccccc2)C(=O)N2CCC[C@H]2C(=O)NCc2cc(Cl)ccc2CN)CC1 [Compound 2.40] | > 50 µM | > 50 µM | > 80 µM | 0.0063 µM | 0.478 µM | 9 µM | 2.4 nM | > 100 µM | > 20 µM | – |
| CC(=O)N1CCC(N(C)C(=O)CC[C@@H](NS(=O)(=O)Cc2ccccc2)C(=O)N2CCC[C@H]2C(=O)NCc2cc(Cl)ccc2CN)CC1 [Compound 2.28] | > 20 µM | > 100 µM | > 20 µM | 0.00057 µM | – | 5.56 µM | 36 nM | > 50 µM | > 100 µM | > 100 µM |
| NCc1ccc(Cl)cc1CNC(=O)[C@@H]1CCCN1C(=O)[C@@H](CCC(=O)O)NS(=O)(=O)Cc1ccccc1 [Compound 2.29] | > 100 µM | > 10 µM | > 50 µM | 0.0033 µM | > 20 µM | > 15 µM | 93 nM | > 25 µM | > 20 µM | – |
| NCc1ccc(Cl)cc1CNC(=O)[C@@H]1CCCN1C(=O)[C@@H](CC(=O)Nc1cc[n+]([O-])cc1)NS(=O)(=O)Cc1ccccc1 [Compound 2.48, Bzls-D-Asp(1-oxido-4-amino-pyridine)-L-Pro-Amb(2-AMe-5-Cl)] | > 100 µM | > 100 µM | > 20 µM | 0.0025 µM | 0.8 µM | – | 17 nM | > 10 µM | 26.8 µM | > 100 µM |
